Laboratory results from article PMC7603405 (Nature, 2020).
“Also recorded” adds a separate entry of the source. Peptide text beside a SMILES is read from it. * marks the point of attachment. Cbz = O=C(OCc1ccccc1)*; CHN2 = [N-]=[N+]=C*

Legend:
SARS-CoV-2 USA-WA1/2020 [1] = format: cell-based; conditions: 2.5 and 1 μM, Vero E6, Table S3
SARS-CoV-2 HKU-001a [2] = format: cell-based; conditions: positive control of the screen
SARS-CoV-2 USA-WA1/2020 [3] = assay: Time-of-addition assay in Vero E6 cells; format: cell-based; conditions: 2.5 μM
SARS-CoV-2 USA-WA1/2020 [4] = format: cell-based
SARS-CoV-2 HKU-001a [5] = format: cell-based
[6] = read-out: Cmax; humans; cited from earlier work
[7] = cited from earlier work
SARS-CoV-2 USA-WA1/2020 [8] = assay: Drug synergy quantification with remdesivir in Vero E6 cells; format: cell-based
[9] = biological target: SARS-CoV-2 papain-like protease (PLpro) (Severe acute respiratory syndrome coronavirus 2, UniProt P0DTD1); format: biochemical; conditions: 1 to 50 μM
[10] = biological target: SARS-CoV-2 main protease (Mpro) (Severe acute respiratory syndrome coronavirus 2, UniProt P0DTD1); format: biochemical; conditions: 1 to 50 μM
COVID-19 = COVID-19 patients, NIAID trial; cited from earlier work
SARS-CoV-2 = format: cell-based; conditions: 5 μM; reversed by RAR antagonist Ro41-5253 5 μM

COc1cc(F)cc2c1-c1ccc(F)cc1C21NC(=O)NC1=O (stereo not drawn) [AL 3152]
validation as inhibitor of SARS-CoV-2 replication (SARS-CoV-2 USA-WA1/2020 [1]): validated

Cc1cccc(/C=N/Nc2cc(N3CCOCC3)n3nc(-c4ccncc4)cc3n2)c1 [APY0201]
antiviral activity in CPE assay (SARS-CoV-2 HKU-001a [2]): confirmed the potential antiviral activity

CCN(CC)CCCNc1ccnc2cc(Cl)ccc12 [AQ-13]
validation as inhibitor of SARS-CoV-2 replication (SARS-CoV-2 USA-WA1/2020 [1]): validated

Cc1cccc(/C=N/Nc2cc(N3CCOCC3)nc(OCCc3ccccn3)n2)c1 [Apilimod]
step of viral life cycle inhibited, time of addition (SARS-CoV-2 USA-WA1/2020 [3]): inhibit viral replication during entry | reduction of number of infected cells (SARS-CoV-2 USA-WA1/2020 [4]): 85% | antiviral activity in ex vivo lung culture (SARS-CoV-2 HKU-001a [5]): potently antagonizes viral replication | Cmax [6]: 265 nM | doses showing a desirable safety profile in humans ([7]; well tolerated): ≤ 125 mg BID

COc1ccc(CCN2CCC(Nc3nc4ccccc4n3Cc3ccc(F)cc3)CC2)cc1 [Astemizole]
validation as inhibitor of SARS-CoV-2 replication (SARS-CoV-2 USA-WA1/2020 [1]): confirmed to inhibit SARS-CoV-2 replication

COc1ccc2cc1Oc1ccc(cc1)C[C@H]1c3cc(c(OC)cc3CCN1C)Oc1c(OC)c(OC)cc3c1[C@H](C2)N(C)CC3 [Hanfangchin A, Tetrandrine]
synergy with remdesivir (SARS-CoV-2 USA-WA1/2020 [8]): notable levels of synergy with remdesivir | validation as inhibitor of SARS-CoV-2 replication (SARS-CoV-2 USA-WA1/2020 [1]): validated

CC(/C=C/C=C(\C)c1cc(C(C)(C)C)cc(C(C)(C)C)c1)=C\C(=O)O [LGD-1550]
validation as inhibitor of SARS-CoV-2 replication (SARS-CoV-2 USA-WA1/2020 [1]): validated

C[C@@H]1CS/C(=N\NC(=O)C(=O)[C@H](NC(=O)C2CCCCCC2)C2CCOCC2)N1C [ONO 5334]
inhibitory activity upon PLpro [9]: lack potent inhibitory activity | inhibitory activity upon 3CLpro / Mpro [10]: lack potent inhibitory activity | reduction of number of infected cells (SARS-CoV-2 USA-WA1/2020 [4]): 72% | tolerability in phase II clinical trials ([7]; treatment of osteoporosis): well tolerated

CCC(CC)COC(=O)[C@H](C)N[P@](=O)(OC[C@H]1O[C@@](C#N)(c2ccc3c(N)ncnn23)[C@H](O)[C@@H]1O)Oc1ccccc1 [Remdesivir]
improved time to recovery in treated patients (COVID-19): 47%

CC[C@H](NC(=O)[C@H](CS(=O)(=O)CC1CC1)N[C@@H](c1ccc(F)cc1)C(F)(F)F)C(=O)C(=O)NC1CC1 [VBY-825]
inhibitory activity upon PLpro [9]: lack potent inhibitory activity | inhibitory activity upon 3CLpro / Mpro [10]: lack potent inhibitory activity

CC(C)CC(NC(=O)OCc1ccccc1)C(=O)NC(C(=O)NCC(=O)C=[N+]=[N-])C(C)C (stereo not drawn) [Z LVG CHN2] (Cbz-Leu-Val-Gly-CHN2; configuration not given here)
inhibitory activity upon PLpro [9]: lack potent inhibitory activity | inhibitory activity upon 3CLpro / Mpro [10]: lack potent inhibitory activity

CCOC(=O)c1ncc2[nH]c3cccc(OC(C)C)c3c2c1C [ZK-93426]
validation as inhibitor of SARS-CoV-2 replication (SARS-CoV-2 USA-WA1/2020 [1]): validated

COc1cc(C)c(/C=C/C(C)=C/C=C/C(C)=C/C(=O)O)c(C)c1C [acitretin]
validation as inhibitor of SARS-CoV-2 replication (SARS-CoV-2 USA-WA1/2020 [1]): validated; also recorded: confirmed to inhibit SARS-CoV-2 replication

CCN(CC)CCCC(C)Nc1ccnc2cc(Cl)ccc12 (stereo not drawn) [chloroquine]
validation as inhibitor of SARS-CoV-2 replication (SARS-CoV-2 USA-WA1/2020 [1]): confirmed to inhibit SARS-CoV-2 replication

CC(C)CCC(=O)CC1c2ccccc2C(=O)N1c1ccc2ccc(Cl)nc2n1 (stereo not drawn) [pagoclone]
validation as inhibitor of SARS-CoV-2 replication (SARS-CoV-2 USA-WA1/2020 [1]): validated

CC1(C)CCC(C)(C)c2cc(NC(=O)c3ccc(C(=O)O)cc3)ccc21 [tamibarotene]
validation as inhibitor of SARS-CoV-2 replication (SARS-CoV-2 USA-WA1/2020 [1]): validated

CCOC(=O)c1ccc(C#Cc2ccc3c(c2)C(C)(C)CCS3)nc1 [tazarotene]
validation as inhibitor of SARS-CoV-2 replication (SARS-CoV-2 USA-WA1/2020 [1]): validated | effect on viral replication, chemical epistasis (SARS-CoV-2): inhibition of viral replication

CC1=C(/C=C/C(C)=C/C=C/C(C)=C/C(=O)O)C(C)(C)CCC1 [tretinoin]
validation as inhibitor of SARS-CoV-2 replication (SARS-CoV-2 USA-WA1/2020 [1]): validated

CCN(C(C)=O)c1cccc(-c2ccnc3c(C#N)cnn23)c1 [zaleplon GR]
validation as inhibitor of SARS-CoV-2 replication (SARS-CoV-2 USA-WA1/2020 [1]): validated

MDL 28170
inhibitory activity upon PLpro [9]: lack potent inhibitory activity | inhibitory activity upon 3CLpro / Mpro [10]: lack potent inhibitory activity | reduction of number of infected cells (SARS-CoV-2 USA-WA1/2020 [4]): 65%
